According to patent US20030114449A1, “SACCHARIN DERIVATIVES AS ORALLY ACTIVE ELASTASE INHIBITORS” (priority 1999, published 2003):

Target: T1, human leukocyte elastase enzyme (Homo sapiens, UniProt P08246)
T1 sequence (P08246 30-267): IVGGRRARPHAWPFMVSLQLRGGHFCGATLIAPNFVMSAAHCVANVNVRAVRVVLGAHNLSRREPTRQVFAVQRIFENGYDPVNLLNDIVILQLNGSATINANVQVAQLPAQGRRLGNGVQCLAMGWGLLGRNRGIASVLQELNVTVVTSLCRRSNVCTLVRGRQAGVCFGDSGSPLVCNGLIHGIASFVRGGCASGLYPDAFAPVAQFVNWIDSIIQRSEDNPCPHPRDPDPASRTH
Experiment: Inhibition of acute lung damaging effect caused by human leukocyte elastase enzyme, determined on mice (BAL haemoglobin)
Type: in vivo, mouse
Details: for inhibition %: male NMRI mice, p.o. dose 10 mg/bw kg, 60 minutes before intratracheal human leukocyte elastase, haemorrhagic response (BAL haemoglobin, 540 nm) 3 hours later; for ED50: mouse, po, mice, per os, elastase-induced lung haemorrhage
Description: Inhibition of Acut Lung Damaging Effect Caused by Human Leukocyte Elastase Enzyme, Determined on Mice.
Description of the method:
Male NMRI mice approximately 6-8 week old of age, weighing between 22-26 grams were dosed per os with the 0.1% (w/v) solution in carboxymethyl cellulose of the investigated compounds of the general formula (I) or of the known comparatory compound, respectively. 60 minutes later the mice were given intratracheally 12.5 international unit of human leukocyte elastase enzyme dissolved in 25.0 μL sterile physiological sodium chloride solution.
3 hours later the animals were euthanized with an overdose of urethane and into the lung 1 ml of physiological salt solution was introduced, for washing.
The trachea was exposed at wound by opening suture clips and a small incision made for insertion of a polyethylene cannula secured in place with surgical thread. An 18 gauge×1½ inch needle, attached to an 1.00 mL syringe was inserted into the cannula, and 0.5 mL of air was withdrawn from the airways. One milliliter was then instilled into the airways. After it the chest was briefly and gently massaged. The syringe was removed from the cannula and the bronchoalveolar lavage (BAL) fluid allowed to drain into a 10.0 mL graduate to determine the total volume of lavage fluid retrievable from lungs while the animal was in a supine position. The instillation procedure mentioned above was repeated three times. Triton X100 was then added to the collected bronchoalveolar lavage fluid (final concentration, 0.2% v/v) to ensure cell disruption and the haemoglobin content was determined spectrophotometrically at 540 nm.
Effectiveness of the elastase enzyme inhibitory compound was determined on the basis of the haemorrhagic responses, according to the following formula:
% inhibition=[(VE−DE)/(VE−VS)]×100,
VE=mean absorbance of BAL fluids from the group pretreated orally only with vehicle but intratracheally with elastase;
DE=absorbance of each BAL fluid from animals pretreated orally with potential inhibitor compound, intratracheally with elastase;
VS=mean absorbance of BAL fluids from group pretreated orally with vehicle and intratracheally with sterile physiological salt solution.
For comparative compound the structurally most related known compound described in patent application EP-0626378A1 example 9E was used. Its synthesis is described above in the reference example.

Compound | inhibition % [%] | ED50 [mg/kg]
COc1cc(C(C)C)c2c(c1)S(=O)(=O)N(COc1cc(=O)n3cccc(OCCN4CCCC4)c3n1)C2=O [EP-626378, Example 9E, 2-(9-(2-pyrrolidino-ethoxy)-4-oxo-4H-pyrido[1,2-a]pyrimidin-2-yl-oxymethyl)-4-isopropyl-6-methoxy-1,2-benzisothiazol-3(2H)one-1,1-dioxide, reference compound] | 15 | 23
COc1cc(C(C)C)c2c(c1)S(=O)(=O)N(COc1cc(=O)n3cccc(OCCN4CCCCC4)c3n1)C2=O.O=C(O)CC(O)(CC(=O)O)C(=O)O [Example 8, 2-(9-(2-piperidino-ethoxy)-4-oxo-4H-pyrido[1,2-a]pyrimidin-2-yl-oxymethyl)-4-isopropyl-6-methoxy-1,2-benzisothiazol-3(2H)-one-1,1-dioxide monocitrate salt] | 70 | 
COc1cc(C(C)C)c2c(c1)S(=O)(=O)N(COc1cc(=O)n3cccc(OCCN4CCCCC4)c3n1)C2=O.O=C(O)c1ccccc1 [Example 7, 2-(9-(2-piperidino-ethoxy)-4-oxo-4H-pyrido[1,2-a]pyrimidin-2-yl-oxymethyl)-4-isopropyl-6-methoxy-1,2-benzisothiazol-3(2H)-one-1,1-dioxide benzoate salt] | 56 | 
COc1cc(C(C)C)c2c(c1)S(=O)(=O)N(COc1cc(=O)n3cccc(OCCN4CCCCC4)c3n1)C2=O [Example 3, 2(-9-(2-piperidino-ethoxy)-4-oxo-4H-pyrido[1,2-a]pyrimidin-2-yl-oxymethyl)-4-isopropyl-6-methoxy-1,2-benzisothiazol-3(2H)-one-1,1-dioxide] | 80 | 2.6
